Usually Kd stands for a measure of binding affinity in units of concentration. A higher Kd goes with weaker binding.

For the test, the target named is T1, NLRP3 (Homo sapiens, UniProt Q96P20).
T1 construct: purified human His-GFP-NLRP3; NACHT domain mapped by DARTS
The test can be described thus: microscale thermophoresis with purified GFP-NLRP3; DARTS and C409A mutation support. The format is binding. Background: In MST a laser heats a spot of the sample, and binding alters the fluorescence response.

T1 sequence (Q96P20 whole entry, the tested form may be a part): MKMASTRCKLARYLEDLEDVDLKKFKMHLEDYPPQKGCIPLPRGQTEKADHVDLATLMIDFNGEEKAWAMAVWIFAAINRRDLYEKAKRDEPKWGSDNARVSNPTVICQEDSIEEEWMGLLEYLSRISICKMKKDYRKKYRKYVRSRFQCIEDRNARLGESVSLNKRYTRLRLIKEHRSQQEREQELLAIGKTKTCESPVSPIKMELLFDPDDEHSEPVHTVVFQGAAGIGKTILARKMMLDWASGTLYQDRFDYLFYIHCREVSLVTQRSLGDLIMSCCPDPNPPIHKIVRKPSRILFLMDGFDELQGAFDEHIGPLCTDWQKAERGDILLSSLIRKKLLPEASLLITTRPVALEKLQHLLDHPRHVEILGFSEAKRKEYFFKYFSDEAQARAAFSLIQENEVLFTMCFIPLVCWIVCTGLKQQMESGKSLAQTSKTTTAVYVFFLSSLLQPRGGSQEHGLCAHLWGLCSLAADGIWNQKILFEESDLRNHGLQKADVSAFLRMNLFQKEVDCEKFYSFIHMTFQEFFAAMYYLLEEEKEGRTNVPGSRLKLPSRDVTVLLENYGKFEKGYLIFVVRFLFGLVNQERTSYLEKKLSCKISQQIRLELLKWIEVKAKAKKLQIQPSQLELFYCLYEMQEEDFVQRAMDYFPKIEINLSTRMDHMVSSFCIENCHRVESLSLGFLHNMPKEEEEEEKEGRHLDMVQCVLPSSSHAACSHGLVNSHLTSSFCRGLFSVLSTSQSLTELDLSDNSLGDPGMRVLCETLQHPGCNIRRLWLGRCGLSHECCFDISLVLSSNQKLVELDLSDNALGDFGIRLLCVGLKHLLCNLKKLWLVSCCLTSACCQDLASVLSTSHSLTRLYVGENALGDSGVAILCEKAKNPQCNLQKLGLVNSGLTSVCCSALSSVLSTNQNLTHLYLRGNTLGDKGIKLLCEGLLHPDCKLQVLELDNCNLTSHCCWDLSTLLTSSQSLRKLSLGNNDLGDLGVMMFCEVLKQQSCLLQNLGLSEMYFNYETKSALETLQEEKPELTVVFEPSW

In the case of `O=C(CBr)NCc1ccc(C(F)(F)F)cc1` [149-01], the Kd amounted to 48.2 nM. That is a double-digit nanomolar value.

The record behind these values is article PMC8892206, “An RRx-001 Analogue With Potent Anti-NLRP3 Inflammasome Activity but Without High-Energy Nitro Functional Groups” (Frontiers in Pharmacology, 2022).
